Reference: PMC12655351, “Synthesis and Anticancer Activity Evaluation of New 5-((5-Nitrofuran-2-yl)allylidene)-2-thioxo-4-thiazolidinones” (Pharmaceuticals, 2025)

Experiments:
[1] = tested on: K-562; conditions: K-562, 48 h
[2] = tested on: MOLT-4; conditions: MOLT-4, 48 h
[3] = tested on: SR; conditions: 48 h
[4] = tested on: HCC-2998; conditions: for TGI: HCC-2998, 48 h
[5] = tested on: HT29; conditions: HT29, 48 h
[6] = tested on: SF-268; conditions: SF-268, 48 h
[7] = tested on: SK-MEL-5; conditions: for TGI: SK-MEL-5, 48 h
[8] = tested on: UACC-257; conditions: UACC-257, 48 h
[9] = tested on: 786-0; conditions: 786-0, 48 h
[10] = tested on: TK-10; conditions: TK-10, 48 h
[11] = tested on: UO-31; conditions: UO-31, 48 h
[12] = tested on: T-47D; conditions: 48 h
[13] = tested on: Non-small cell lung cancer; conditions: Non-small cell lung cancer subpanel
[14] = tested on: Melanoma; conditions: Melanoma subpanel
[15] = tested on: Ovarian cancer; conditions: Ovarian cancer subpanel
[16] = tested on: Renal Cancer; conditions: Renal Cancer subpanel
[17] = tested on: CCRF-CEM; experiment: cells; conditions: Homo sapiens, 48 h
[18] = tested on: K-562; experiment: cells; conditions: Homo sapiens, K562, 48 h; for GI50: K-562, 48 h; for CC50: read-out: LC50
[19] = tested on: SR; experiment: cells; conditions: Homo sapiens, 48 h; for CC50: read-out: LC50
[20] = tested on: SF-268; experiment: cells; conditions: Homo sapiens, SF-268, 48 h; for CC50: read-out: LC50, SF-268, 48 h
[21] = tested on: SK-MEL-28; experiment: cells; conditions: Homo sapiens, SK-MEL-28, 48 h; for CC50: read-out: LC50, SK-MEL-28, 48 h
[22] = tested on: NCI/ADR-RES; experiment: cells; conditions: Homo sapiens, 48 h; for CC50: read-out: LC50, NCI/ADR-RES, 48 h
[23] = tested on: CAKI-1; experiment: cells; conditions: Homo sapiens, CAKI-1, 48 h
[24] = tested on: SN12C; experiment: cells; conditions: Homo sapiens, 48 h; for CC50: read-out: LC50, SN12C, 48 h
[25] = tested on: UO-31; experiment: cells; conditions: Homo sapiens, UO-31, 48 h; for CC50: read-out: LC50, UO-31, 48 h
[26] = tested on: PC-3; experiment: cells; conditions: Homo sapiens, PC-3, 48 h
[27] = tested on: BT-549; experiment: cells; conditions: Homo sapiens, BT-549, 48 h; for CC50: read-out: LC50, BT-549, 48 h
[28] = tested on: T-47D; experiment: cells; conditions: Homo sapiens, T47D, 48 h; for GI50: T-47D; for CC50: read-out: LC50
[29] = tested on: CNS cancer; experiment: cells; conditions: Homo sapiens; for GI50: read-out: MG_MID GI50; for CC50: read-out: MG_MID LC50
[30] = tested on: Renal Cancer; experiment: cells; conditions: Homo sapiens; for GI50: read-out: MG_MID GI50; for CC50: read-out: MG_MID LC50
[31] = tested on: HL-60(TB); experiment: NCI-60 SRB screen; conditions: for TGI / GI50: HL-60(TB), 48 h; for GI50 / CC50: Homo sapiens, HL-60, 48 h; for CC50: read-out: LC50, HL-60(TB), 48 h
[32] = tested on: HOP-92; experiment: NCI-60 SRB screen; conditions: HOP-92, 48 h; for GI50 / CC50: Homo sapiens; for CC50: read-out: LC50, HOP-92, 48 h
[33] = tested on: SW-620; experiment: NCI-60 SRB screen; conditions: SW-620, 48 h; for GI50: Homo sapiens
[34] = tested on: SF-295; experiment: NCI-60 SRB screen; conditions: SF-295, 48 h; for GI50 / CC50: Homo sapiens; for CC50: read-out: LC50, SF-295, 48 h
[35] = tested on: MALME-3M; experiment: NCI-60 SRB screen; conditions: 48 h; for GI50 / CC50: Homo sapiens, Malme-3M; for CC50: read-out: LC50, MALME-3M, 48 h; for TGI: MALME-3M
[36] = tested on: UACC-62; experiment: NCI-60 SRB screen; conditions: UACC-62, 48 h; for GI50 / CC50: Homo sapiens; for CC50: read-out: LC50, UACC-62, 48 h
[37] = tested on: OVCAR-5; experiment: NCI-60 SRB screen; conditions: OVCAR-5, 48 h; for GI50: Homo sapiens
[38] = tested on: MCF7; experiment: NCI-60 SRB screen; conditions: MCF7, 48 h; for GI50: Homo sapiens
[39] = tested on: MDA-MB-468; experiment: NCI-60 SRB screen; conditions: MDA-MB-468, 48 h; for GI50 / CC50: Homo sapiens; for CC50: read-out: LC50, MDA-MB-468, 48 h

O=C(O)C(c1ccccc1)N1C(=O)/C(=C/C=C/c2ccc([N+](=O)[O-])o2)SC1=S (stereo not shown) [9b, 2-((Z)-5-((E)-3-(5-Nitrofuran-2-yl)allylidene)-4-oxo-2-thioxothiazolidin-3-yl)-2-phenylacetic acid]
TGI [1]: 19.3 µM | TGI [2]: 39.9 µM | TGI [3]: 18.0 µM | TGI [4]: 29.9 µM | TGI [5]: 22.4 µM | TGI [6]: 23.7 µM | TGI [7]: 13.7 µM | TGI [8]: 27.2 µM | TGI [9]: 12.8 µM | TGI [10]: 30.0 µM | TGI [11]: 23.4 µM | TGI [12]: 39.4 µM | MG_MID TGI [13]: 31.8 µM | MG_MID TGI [14]: 20.0 µM | MG_MID TGI [15]: 27.9 µM | MG_MID TGI [16]: 22.1 µM | GI50 [17]: 3.12 µM | GI50 [18]: 3.45 µM | CC50 [18]: > 100 µM | GI50 [19]: 3.15 µM | CC50 [19]: > 100 µM | GI50 [20]: 10.8 µM | CC50 [20]: 52.2 µM | GI50 [21]: 10.7 µM | CC50 [21]: 51.1 µM | GI50 [22]: 13.5 µM | CC50 [22]: 84.9 µM | GI50 [23]: 6.27 µM | GI50 [24]: 5.39 µM | CC50 [24]: 45 µM | GI50 [25]: 10.8 µM | CC50 [25]: 50.7 µM | GI50 [26]: 13.5 µM | GI50 [27]: 2.46 µM | CC50 [27]: 35.7 µM | GI50 [28]: 11.1 µM | CC50 [28]: > 100 µM | GI50 [29]: 9.99 µM | CC50 [29]: 48.4 µM | GI50 [30]: 9.53 µM | CC50 [30]: 50.7 µM | TGI [31]: 42.2 µM | GI50 [31]: 14.8 µM | CC50 [31]: > 100 µM | TGI [32]: 27.5 µM | GI50 [32]: 13.4 µM | CC50 [32]: 56.2 µM | GI50 [33]: 2.94 µM | TGI [33]: 9.66 µM | GI50 [34]: 17.4 µM | CC50 [34]: 58.4 µM | TGI [34]: 31.9 µM | GI50 [35]: 5.4 µM | CC50 [35]: 48.8 µM | TGI [35]: 18.7 µM | GI50 [36]: 2.69 µM | CC50 [36]: 35.3 µM | TGI [36]: 11.1 µM | GI50 [37]: 12.7 µM | TGI [37]: 25.8 µM | GI50 [38]: 3.67 µM | TGI [38]: 16.5 µM | GI50 [39]: 2.74 µM | CC50 [39]: 45.6 µM | TGI [39]: 10.4 µM

CC(C)C(C(=O)O)N1C(=O)/C(=C/C=C/c2ccc([N+](=O)[O-])o2)SC1=S (stereo not shown) [5b, 3-Methyl-2-((Z)-5-((E)-3-(5-nitrofuran-2-yl)allylidene)-4-oxo-2-thioxothiazolidin-3-yl)butanoic acid]
TGI [1]: 2.86 µM | TGI [2]: 10.7 µM | TGI [3]: 1.89 µM | growth GP ([4]; HCC-2998, 10 μM, 48 h): -95.90% | TGI [4]: 3.22 µM | TGI [5]: 2.90 µM | TGI [6]: 3.57 µM | growth GP ([7]; SK-MEL-5, 10 μM, 48 h): -99.69% | TGI [7]: 2.21 µM | TGI [8]: 3.27 µM | TGI [9]: 3.70 µM | TGI [10]: 4.03 µM | TGI [11]: 3.11 µM | TGI [12]: 3.24 µM | MG_MID TGI [13]: 4.25 µM | MG_MID TGI [14]: 2.68 µM | MG_MID TGI [15]: 5.19 µM | MG_MID TGI [16]: 3.27 µM | GI50 [17]: 0.36 µM | GI50 [18]: 0.45 µM | CC50 [18]: > 100 µM | GI50 [19]: 0.32 µM | CC50 [19]: > 100 µM | GI50 [20]: 1.61 µM | CC50 [20]: 7.92 µM | GI50 [21]: 1.46 µM | CC50 [21]: 5.48 µM | GI50 [22]: 1.47 µM | CC50 [22]: 17.5 µM | GI50 [23]: 1.17 µM | GI50 [24]: 0.79 µM | CC50 [24]: 4.96 µM | GI50 [25]: 1.33 µM | CC50 [25]: 7.27 µM | GI50 [26]: 1.8 µM | GI50 [27]: 0.75 µM | CC50 [27]: 5.13 µM | GI50 [28]: 1.12 µM | GI50 [29]: 1.28 µM | CC50 [29]: 5.93 µM | GI50 [30]: 1.54 µM | CC50 [30]: 7.72 µM | TGI [31]: 3.87 µM | GI50 [31]: 1.2 µM | CC50 [31]: > 100 µM | TGI [32]: 4.17 µM | GI50 [32]: 2.13 µM | CC50 [32]: 8.15 µM | GI50 [33]: 0.59 µM | TGI [33]: 2.55 µM | GI50 [34]: 1.83 µM | CC50 [34]: 6.69 µM | TGI [34]: 3.49 µM | GI50 [35]: 1.32 µM | CC50 [35]: 5.64 µM | TGI [35]: 2.73 µM | GI50 [36]: 0.78 µM | CC50 [36]: 4.9 µM | TGI [36]: 2.16 µM | GI50 [37]: 2.13 µM | TGI [37]: 3.83 µM | GI50 [38]: 0.43 µM | TGI [38]: 1.83 µM | GI50 [39]: 1.37 µM | CC50 [39]: 6.16 µM | TGI [39]: 2.90 µM

CCCC(C(=O)O)N1C(=O)/C(=C/C=C/c2ccc([N+](=O)[O-])o2)SC1=S (stereo not shown) [4b, 2-((Z)-5-((E)-3-(5-Nitrofuran-2-yl)allylidene)-4-oxo-2-thioxothiazolidin-3-yl)pentanoic acid]
TGI [1]: 14.5 µM | TGI [2]: 14.4 µM | TGI [3]: 8.87 µM | TGI [4]: 3.33 µM | TGI [5]: 3.81 µM | TGI [6]: 4.45 µM | TGI [7]: 2.79 µM | TGI [8]: 4.82 µM | TGI [9]: 12.6 µM | TGI [10]: 8.16 µM | TGI [11]: 3.33 µM | TGI [12]: 5.49 µM | MG_MID TGI [13]: 6.56 µM | MG_MID TGI [14]: 3.41 µM | MG_MID TGI [15]: 8.71 µM | MG_MID TGI [16]: 4.25 µM | GI50 [17]: 2.27 µM | GI50 [18]: 2.77 µM | CC50 [18]: > 100 µM | GI50 [19]: 1.86 µM | CC50 [19]: > 100 µM | GI50 [20]: 2.04 µM | CC50 [20]: 9.72 µM | GI50 [21]: 1.76 µM | CC50 [21]: 6.98 µM | GI50 [22]: 2.03 µM | CC50 [22]: 21.4 µM | GI50 [23]: 1.75 µM | GI50 [24]: 1.76 µM | CC50 [24]: 9.32 µM | GI50 [25]: 1.63 µM | CC50 [25]: 6.78 µM | GI50 [26]: 2.87 µM | GI50 [27]: 1.67 µM | CC50 [27]: 6.77 µM | GI50 [28]: 2.2 µM | CC50 [28]: > 100 µM | GI50 [29]: 1.93 µM | CC50 [29]: 11.6 µM | GI50 [30]: 2.25 µM | CC50 [30]: 18.5 µM | TGI [31]: 6.43 µM | GI50 [31]: 2.17 µM | CC50 [31]: > 100 µM | TGI [32]: 7.69 µM | GI50 [32]: 2.63 µM | CC50 [32]: 31.9 µM | GI50 [33]: 1.55 µM | TGI [33]: 3.08 µM | GI50 [34]: 2.2 µM | CC50 [34]: 25.7 µM | TGI [34]: 6.76 µM | GI50 [35]: 1.8 µM | CC50 [35]: 6.4 µM | TGI [35]: 3.40 µM | GI50 [36]: 1.5 µM | CC50 [36]: 5.9 µM | TGI [36]: 2.98 µM | GI50 [37]: 1.89 µM | TGI [37]: 4.32 µM | GI50 [38]: 1.6 µM | TGI [38]: 3.70 µM | GI50 [39]: 1.57 µM | CC50 [39]: 5.92 µM | TGI [39]: 3.05 µM
